One test deals with T1, human URAT1 (Homo sapiens, UniProt Q96S37).
T1 construct: Full-length cDNA of human URAT1 (hURAT1)
T1 sequence (Q96S37 1-553): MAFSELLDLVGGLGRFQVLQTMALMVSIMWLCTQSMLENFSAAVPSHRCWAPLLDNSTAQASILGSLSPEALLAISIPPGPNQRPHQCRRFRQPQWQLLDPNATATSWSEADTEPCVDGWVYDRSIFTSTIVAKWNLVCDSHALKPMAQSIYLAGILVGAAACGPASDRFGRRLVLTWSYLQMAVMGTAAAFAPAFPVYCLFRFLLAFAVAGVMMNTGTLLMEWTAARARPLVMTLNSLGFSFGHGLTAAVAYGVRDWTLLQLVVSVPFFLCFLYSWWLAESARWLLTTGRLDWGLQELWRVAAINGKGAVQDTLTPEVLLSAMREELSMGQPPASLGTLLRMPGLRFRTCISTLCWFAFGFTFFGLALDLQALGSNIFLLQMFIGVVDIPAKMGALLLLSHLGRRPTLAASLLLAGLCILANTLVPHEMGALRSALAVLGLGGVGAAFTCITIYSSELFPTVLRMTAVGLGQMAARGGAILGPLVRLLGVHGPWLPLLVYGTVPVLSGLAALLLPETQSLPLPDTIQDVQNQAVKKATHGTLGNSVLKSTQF
Kind of test: Test for inhibition of uric acid transport using human URAT1-expressing cells.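 Note: three stars up to 0.2 µM two stars 0.2-2 µM one star 2-20 µM.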 In kind it is cell-based. The conditions noted are these: HEK 293 cells expressing human URAT1; 14C-labeled uric acid 25 μM; uptake 37° C. for 5 min. The essentials: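 HEK293 cells stably transfected with full-length hURAT1, preincubated 10 min at 37 °C in HBSS with NaCl replaced by Na gluconate. Uptake of 25 μM ¹⁴C-uric acid with compound ran 5 min at 37 °C, then scintillation counting. IC50 derived from % of DMSO-control URAT1-specific uptake.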
Take `Cc1nc(-c2cncc(C(F)(F)F)c2)n(Cc2cccc3ccccc23)c1C(=O)O` [Compound A138, 4-methyl-1-(naphthalen-1-ylmethyl)-2-(5-(trifluoromethyl)pyridin-3-yl)-1H-imidazole-5-carboxylic acid]: the “Inhibitory Activity (IC50 of uric acid transport inhibition)” value (from here on “Inhibitory Activity”) is listed as “* *”.

In the case of `CC(C)c1nc(-c2cccnc2)n(Cc2cccc3ccccc23)c1C(=O)O` [Compound A24, 4-isopropyl-1-(naphthalen-1-ylmethyl)-2-(pyridin-3-yl)-1H-imidazole-5-carboxylic acid], the “Inhibitory Activity” value is on record as “* *”.

On to `Cc1nc(-c2cccnc2)n(Cc2cc(C(F)(F)F)ccc2C(F)(F)F)c1C(=O)O` [Compound A46, 1-(2,5-bis(trifluoromethyl)benzyl)-4-methyl-2-(pyridin-3-yl)-1H-imidazole-5-carboxylic acid], for which the “Inhibitory Activity” value was “* *”.

As for `O=C(O)c1cnc(-c2cncc(Br)c2)n1Cc1cc(Cl)ccc1Cl` [Compound A205, 2-(5-bromopyridin-3-yl)-1-(2,5-dichlorobenzyl)-1H-imidazole-5-carboxylic acid], the “Inhibitory Activity” value was “* * *”.

For `Cc1ccc(Cn2c(-c3cccnc3)nc(C(C)C)c2C(=O)O)c2ccccc12` [Compound A25, 4-isopropyl-1-((4-methylnaphthalen-1-yl)methyl)-2-(pyridin-3-yl)-1H-imidazole-5-carboxylic acid], the “Inhibitory Activity” value is recorded as “* * *”.

Consider `Cc1nc(-c2cncc(Cl)c2)n(Cc2cc(Cl)sc2Cl)c1C(=O)O` [Compound A226], for which the “Inhibitory Activity” value was “* * *”.

Regarding `O=C(O)c1c(C2CC2)nc(-c2cncc(Cl)c2)n1Cc1cccc2ccccc12` [Compound A145, 2-(5-chloropyridin-3-yl)-4-cyclopropyl-1-(naphthalen-1-ylmethyl)-1H-imidazole-5-carboxylic acid], the “Inhibitory Activity” value was “* * *”.

As to `O=C(O)/C=C/c1ccc(-c2cncc(F)c2)n1Cc1cc(Cl)ccc1Cl` [Compound B35, (E)-3-(1-(2,5-dichlorobenzyl)-2-(5-fluoropyridin-3-yl)-1H-pyrrol-5-yl)acrylic acid], the “Inhibitory Activity” value is listed as “* * *”.

For the molecule `O=C(O)c1c(C2CC2)nc(-c2cncc(F)c2)n1Cc1cc(Cl)ccc1Cl` [Compound A155, 4-cyclopropyl-1-(2,5-dichlorobenzyl)-2-(5-fluoropyridin-3-yl)-1H-imidazole-5-carboxylic acid], the “Inhibitory Activity” value was “* * *”.

`Cc1nc(Oc2cccnc2Br)n(Cc2cc(Cl)ccc2Cl)c1C(=O)O` [Compound A254, 2-((2-bromopyridin-3-yl)oxy)-1-(2,5-dichlorobenzyl)-4-methyl-1H-imidazole-5-carboxylic acid]: the “Inhibitory Activity” value was “* * *”.

With `Cc1nc(-c2cncc(C#N)c2)n(Cc2cc(Cl)ccc2Cl)c1C(=O)O` [Compound A158, 2-(5-cyanopyridin-3-yl)-1-(2,5-dichlorobenzyl)-4-methyl-1H-imidazole-5-carboxylic acid], the “Inhibitory Activity” value is “* *”.

As for `Cc1nc(Oc2cnccc2Br)n(Cc2cc(Cl)ccc2Cl)c1C(=O)O` [Compound A258, 2-((4-bromopyridin-3-yl)oxy)-1-(2,5-dichlorobenzyl)-4-methyl-1H-imidazole-5-carboxylic acid], the “Inhibitory Activity” value is “* * *”.

As to `Cc1ccc(Cl)c(Cn2c(-c3cccnc3)nc(C)c2C(=O)O)c1` [Compound A78, 1-(2-chloro-5-methylbenzyl)-4-methyl-2-(pyridin-3-yl)-1H-imidazole-5-carboxylic acid], the “Inhibitory Activity” value was “* * *”.

Staying with this test, now noted: HEK 293 cells expressing human URAT1; 14C-labeled uric acid 25 μM; uptake 37° C. for 5 min; read-out: Inhibitory Activity (IC50 of uric acid transport inhibition).
In general, IC50 refers to the midpoint of a concentration-inhibition curve. For the molecule `O=C(O)/C=C/c1cnc(-c2cccnc2)n1Cc1cc(Cl)ccc1Cl` [Compound A260], the IC50 was 2 to 20 µM.

Take `Cc1nc(-c2cccnc2)n(Cc2csc3ccccc23)c1C(=O)O` [Compound A16]: the IC50 was 2 to 20 µM.

Take `Cc1nc(-c2cncc([S+](C)(=O)[O-])c2)n(Cc2cc(Cl)ccc2Cl)c1C(=O)O` [Compound A165]: the IC50 fell in the range of 2 to 20 µM.

Values taken from patent US9637469B2, “Pyridine derivative” (Teijin Pharma Limited, priority 2012, dated 2017).
